What was measured:
CPSF3 = assay: Resistance of CPSF3 overexpression line and CPSF3 mutant (intracellular amastigotes); format: cell-based, Trypanosoma cruzi
Protocol: (§1) The in vitro anti-T. cruzi amastiogote activity assay was performed and optimized based on the protocol described previously (Canavaci, et al., PLoS neglected tropical diseases 4, e740 (2010)). The change in tdTomato fluorescence intensity was determined as a measurement of growth over 72 hours of culture. For assaying drug effects on extracellular amastigotes, trypomastigotes were collected from infected Vero cell cultures and converted in acidic media as previously described (Tomlinson, et al., Parasitology 110 (Pt 5), 547-554 (1995)). Amastigotes (50,000/well) were incubated with 2-fold serial dilutions of compounds for 48 hours. The ATP production was used as an indication of growth in this case, and was measured by ATPlite Luminescence ATP Detection Assay System (PerkinElmer). Both fluorescence and luminescence were read using a BioTek Synergy Hybrid Multi-Mode reader equipped with the software Gene5 v 2.0 (BioTek). The dose-response curve was generated by […] analysis with GraphPad Prism v9.4.0 (GraphPad Software). IC50 was determined as the drug concentration that was required to inhibit 50% of growth compared to that of parasites with no drug exposure. […]

T. cruzi isolates = assay: In vitro potency of AN14353 for a range of T. cruzi isolates of different genetic lineages (DTUs); format: cell-based, Trypanosoma cruzi
Protocol: as §1

Compound | increase in resistance on overexpression of CPSF3 (CPSF3; intracellular amastigotes) | effect of CPSF3 Asn232 to His mutation (CPSF3; intracellular amastigotes (FIG. 5D)) | in vitro potency for a range of T. cruzi isolates (T. cruzi isolates; in words) | IC50 (T. cruzi isolates; strain 20290, DTU TcI) [nM] | IC90 (T. cruzi isolates; strain 20290, DTU TcI) [nM] | IC50 (T. cruzi isolates; strain 20392, DTU TcIV) [nM] | IC90 (T. cruzi isolates; strain 20392, DTU TcIV) [nM] | IC50 (T. cruzi isolates; strain ARC0704, DTU TcI) [nM] | IC90 (T. cruzi isolates; strain ARC0704, DTU TcI) [nM] | IC50 (T. cruzi isolates; strain CL, DTU TcVI) [nM] | IC90 (T. cruzi isolates; strain CL, DTU TcVI) [nM] | IC50 (T. cruzi isolates; strain Colombiana, DTU TcI) [nM] | IC90 (T. cruzi isolates; strain Colombiana, DTU TcI) [nM] | IC50 (T. cruzi isolates; strain M5631, DTU TcIII) [nM] | IC90 (T. cruzi isolates; strain M5631, DTU TcIII) [nM] | IC50 (T. cruzi isolates; strain Montalvania, DTU TcI) [nM] | IC90 (T. cruzi isolates; strain Montalvania, DTU TcI) [nM] | IC50 (T. cruzi isolates; strain Tul8, DTU TcII) [nM] | IC90 (T. cruzi isolates; strain Tul8, DTU TcII) [nM]
Cc1c(C(=O)N[C@H](C(=O)OCC2CCOCC2)C(C)C)ccc2c1B(O)OC2 [AN15368] | 3-5 fold | conferred resistance |  |  |  |  |  |  |  |  |  |  |  |  |  |  |  |  | 
Cc1c(C(=O)N[C@H](C(=O)OCc2ccc(F)c(F)c2)C(C)C)ccc2c1B(O)OC2 [AN14353] |  |  | high in vitro potency | 3 | 5 | 5 | 10 | 3 | 7 | 6 | 18 | 7 | 10 | 1 | 3 | 1 | 2 | 1 | 2

From US20240133884A1, “COMPOSITIONS AND METHODS FOR DETECTING TRYPANOSOMA CRUZI INFECTION” (University of Georgia Research Foundation, Inc., priority 2022, published 2024)
